From patent publication US10647743B2, “Method of making biologically active alpha-beta peptides” (priority 2008, dated 2020)
Like-named read-outs stand apart in the source and are kept apart here. *1 amine or outer side, *2 acyl side, *3 side chain or, on linkers, in order; H or OH if unused. Where a SMILES comes first, the peptide text is derived from it. [ ]: non-standard residue; d: D form. ξ: configuration not given here. ξ(4-Aminopyrrolidine-3-CO) = O=C(C1CNCC1N[*:1])[*:2]; β3hR = N=C(N)NCCC[C@H](N)CC(=O)O; β3hT = C[C@@H](O)[C@H](N)CC(=O)O; β3hE = N[C@@H](CCC(=O)O)CC(=O)O; X1 = O=C(C1CCCC1N[*:1])[*:2]

What was measured:
[1] = target: gp41-5 (Human immunodeficiency virus type 1 group M subtype B, UniProt P04578, C598G/DEL582-595/DEL601-626/T627G/W596S); assay: biochemical; assay type: binding, HIV; details: for Ki: competition FP
[2] = target: T1, envelope glycoprotein of the HIV-1 clone HXB2 (Human immunodeficiency virus type 1 group M subtype B, UniProt P04578); assay: cell-cell fusion assay; assay type: cell-based
T1 construct: One cell line expresses HIV-1 Env (processed by cellular proteases to generate gp120+gp41); expressed in transfected cells; host or cells: CHO cells expressing HXB2 env (and Tat); U373-MAGI target cells

[3] = target: T2, proteinase K (Parengyodontium album, UniProt P06873); details: relative to 3
T2 sequence (P06873 106-384): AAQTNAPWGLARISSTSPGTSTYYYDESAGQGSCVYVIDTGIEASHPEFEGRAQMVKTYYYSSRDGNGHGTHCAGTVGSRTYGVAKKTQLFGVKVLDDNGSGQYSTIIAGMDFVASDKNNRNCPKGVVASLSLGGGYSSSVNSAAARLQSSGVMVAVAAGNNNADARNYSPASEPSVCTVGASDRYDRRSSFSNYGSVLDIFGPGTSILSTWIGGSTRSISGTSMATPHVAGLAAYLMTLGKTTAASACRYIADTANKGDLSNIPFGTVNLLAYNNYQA

[4] = system: HIV-1 NL4-3; details: read-out: Inhibition of HIV-1 infectivity, IC50 (nM), X4 strains, NL4-3; TZM-bl cells; mean ± S.E.M., three experiments
[5] = system: HIV-1 HC4; details: read-out: Inhibition of HIV-1 infectivity, IC50 (nM), X4 strains, HC4; TZM-bl cells; mean ± S.E.M., three experiments
[6] = system: HIV-1 CC 1/85; details: read-out: Inhibition of HIV-1 infectivity, IC50 (nM), R5 strains, CC 1/85; TZM-bl cells; mean ± S.E.M., three experiments
[7] = system: HIV-1 DJ258; details: read-out: Inhibition of HIV-1 infectivity, IC50 (nM), R5 strains, DJ258; TZM-bl cells; mean ± S.E.M., three experiments
[8] = target: T2, proteinase K; assay: in vitro; details: for half-life at 20 μM: proteinase K solution in TBS
[9] = target: T3, NHR α-peptide 1 (Human immunodeficiency virus type 1 group M subtype B, UniProt P04578); assay: CD thermal unfolding of 1:1 NHR + CHR peptide mixtures; assay type: physicochemical, HIV; details: Table 2; CD at 222 nm, 1:1 mixture with NHR α-peptide 1, PBS, 20 μM total peptide
T3 construct: made in house; host or cells: chemical synthesis (Fmoc solid phase)
Method: The interactions of select α/β-peptides with the gp41 NHR domain were further investigated by circular dichroism (CD) spectroscopy. The CD spectra of 3, 4, 5, 8, 9 and were measured, both alone (see FIG. 5A) and in a 1:1 mixture with NHR α-peptide 1 (see FIGS. 3A, 3B, 3C, and 3D, respectively). See also FIGS. 5B and 5C for the superimposed spectra. […] The magnitude of the CD signatures among the well-folded mixtures (1+3, 1+5 and 1+10, FIGS. 3A, 3C, and 3D, respectively) are similar, but the ratio of intensities at 208 and 222 nm changes as a function of β-residue content (more β-residues tracks with a less intense peak at 222 nm).
The interactions of CHR α-peptide 3 and α/β-peptide analogues 4, 5, 8 and 10 with a peptide derived from the gp41 NHR domain (1) were investigated by circular dichroism (CD) spectroscopy. […] The magnitude of the CD signatures among the well-folded mixtures (1+3, 1+5, 1+8 and 1+10) are similar, but the ratio of intensities at 208 and 222 nm changes as a function of β-residue content (higher β-residue content is correlated with a less intense peak at 222 nm). This trend is consistent with previous studies on helical oligomers containing mixed α/β backbones.
Circular Dichroism Spectroscopy. Circular dichroism measurements were carried out on an Aviv 202SF Circular Dichroism Spectrophotometer. Samples of each peptide were prepared at 20 μM concentration in PBS. Solutions of 1:1 peptide mixtures were prepared by mixing equal volumes from the same 20 μM stock solutions used for individual peptide measurements. Spectra were recorded in a 1 mm cell with a step size of 1 nm and an averaging time of 5 sec. All spectra are background corrected against buffer measured in the same cell. Thermal melts were carried out in 5-degree increments with an equilibration time of 10 min between each temperature change. Thermal unfolding data were fit to a simple two state folding model Shortle, D.; Meeker, A. K.; Freire, E. Biochemistry 1988, 27, 4761-4768) using GraphPad Prism.

`CC[C@H](C)[C@H](NC(=O)[C@H](C)NC(=O)C[C@H](CCCNC(=N)N)NC(=O)[C@H](CC(=O)O)NC(=O)[C@H](Cc1c[nH]c2ccccc12)NC(=O)C[C@H](C)NC(=O)[C@H](CCC(=O)O)NC(=O)[C@H](Cc1c[nH]c2ccccc12)NC(=O)[C@@H](NC(=O)C[C@@H](NC(C)=O)[C@@H](C)O)[C@@H](C)O)C(=O)N[C@@H](C)C(=O)N[C@@H](CCC(=O)O)CC(=O)N[C@@H](Cc1ccc(O)cc1)C(=O)N[C@@H](C)C(=O)N[C@@H](C)CC(=O)N[C@@H](CCCNC(=N)N)C(=O)N[C@H](C(=O)N[C@@H](CCC(=O)O)C(=O)N[C@@H](C)CC(=O)N[C@@H](CC(C)C)C(=O)N[C@H](C(=O)N[C@@H](CCCNC(=N)N)CC(=O)N[C@@H](C)C(=O)N[C@@H](C)C(=O)N[C@@H](CCC(N)=O)C(=O)N[C@@H](CCC(=O)O)CC(=O)N[C@@H](CCC(N)=O)C(=O)N[C@@H](CCC(N)=O)C(=O)N[C@@H](CCC(=O)O)CC(=O)N[C@@H](CCCCN)C(=O)N[C@@H](CC(N)=O)C(=O)N[C@@H](CCC(=O)O)C(=O)N[C@@H](C)CC(=O)N[C@@H](C)C(=O)N[C@@H](CC(C)C)C(=O)N[C@@H](CCCNC(=N)N)CC(=O)N[C@@H](CCC(=O)O)C(=O)N[C@@H](CC(C)C)C(N)=O)[C@@H](C)CC)[C@@H](C)CC` [compound 4] was tested, and the Ki ([1]; Table 2, read-out: gp41-5 Ki) was 3800 nM, the IC50 [2] was 390 ± 40 nM and the “fold improvement in stability to proteinase K relative to α-peptide 3” value [3] was 20 fold. For the same compound, the IC50 [4] was 700 ± 60 nM, the IC50 [5] was 590 ± 100 nM and the IC50 [6] was 1300 ± 100 nM. For the same compound, the IC50 [7] was 960 ± 200 nM, the half-life at 20 μM ([8]; Tritirachium album (source organism of proteinase K)) was 14 min and the half-life at 20 μM [8] was 14 min.

Work on `CC[C@H](C)[C@H](NC(=O)[C@H](C)NC(=O)[C@H](CCCNC(=N)N)NC(=O)[C@H](CC(=O)O)NC(=O)[C@H](Cc1c[nH]c2ccccc12)NC(=O)[C@H](C)NC(=O)[C@H](CCC(=O)O)NC(=O)[C@H](Cc1c[nH]c2ccccc12)NC(=O)[C@@H](NC(=O)[C@@H](NC(C)=O)[C@@H](C)O)[C@@H](C)O)C(=O)N[C@@H](C)C(=O)N[C@@H](CCC(=O)O)C(=O)N[C@@H](Cc1ccc(O)cc1)C(=O)N[C@@H](C)C(=O)N[C@@H](C)CC(=O)N[C@@H](CCCNC(=N)N)C(=O)N[C@H](C(=O)N[C@@H](CCC(=O)O)C(=O)N[C@@H](C)CC(=O)N[C@@H](CC(C)C)C(=O)N[C@H](C(=O)N[C@@H](CCCNC(=N)N)CC(=O)N[C@@H](C)C(=O)N[C@@H](C)C(=O)N[C@@H](CCC(N)=O)C(=O)N[C@@H](CCC(=O)O)CC(=O)N[C@@H](CCC(N)=O)C(=O)N[C@@H](CCC(N)=O)C(=O)N[C@@H](CCC(=O)O)CC(=O)N[C@@H](CCCCN)C(=O)N[C@@H](CC(N)=O)C(=O)N[C@@H](CCC(=O)O)C(=O)N[C@@H](C)CC(=O)N[C@@H](C)C(=O)N[C@@H](CC(C)C)C(=O)N[C@@H](CCCNC(=N)N)CC(=O)N[C@@H](CCC(=O)O)C(=O)N[C@@H](CC(C)C)C(N)=O)[C@@H](C)CC)[C@@H](C)CC` [compound 6] yielded a Ki ([1]; Table 2, read-out: gp41-5 Ki) of 15 nM.

With `CC[C@H](C)[C@H](NC(=O)[C@H](C)NC(=O)C1CNCC1NC(=O)[C@H](CC(=O)O)NC(=O)[C@H](Cc1c[nH]c2ccccc12)NC(=O)C1CCCC1NC(=O)[C@H](CCC(=O)O)NC(=O)[C@H](Cc1c[nH]c2ccccc12)NC(=O)[C@@H](NC(=O)C[C@@H](NC(C)=O)[C@@H](C)O)[C@@H](C)O)C(=O)N[C@@H](C)C(=O)N[C@@H](CCC(=O)O)CC(=O)N[C@@H](Cc1ccc(O)cc1)C(=O)N[C@@H](C)C(=O)NC1CCCC1C(=O)N[C@@H](CCCNC(=N)N)C(=O)N[C@H](C(=O)N[C@@H](CCC(=O)O)C(=O)NC1CCCC1C(=O)N[C@@H](CC(C)C)C(=O)N[C@H](C(=O)NC1CNCC1C(=O)N[C@@H](C)C(=O)N[C@@H](C)C(=O)N[C@@H](CCC(N)=O)C(=O)N[C@@H](CCC(=O)O)CC(=O)N[C@@H](CCC(N)=O)C(=O)N[C@@H](CCC(N)=O)C(=O)N[C@@H](CCC(=O)O)CC(=O)N[C@@H](CCCCN)C(=O)N[C@@H](CC(N)=O)C(=O)N[C@@H](CCC(=O)O)C(=O)NC1CCCC1C(=O)N[C@@H](C)C(=O)N[C@@H](CC(C)C)C(=O)NC1CNCC1C(=O)N[C@@H](CCC(=O)O)C(=O)N[C@@H](CC(C)C)C(N)=O)[C@@H](C)CC)[C@@H](C)CC` (stereo partly drawn) [compound 10, Ac-TTWEXWDZAIAEYAXRIEXLIZAAQEQQEKNEXALZEL-NH2] (Ac-[β3hT]TWE[X1]WD[ξ(4-Aminopyrrolidine-3-CO)]AIA[β3hE]YA[X1]RIE[X1]LI[ξ(4-Aminopyrrolidine-3-CO)]AAQ[β3hE]QQ[β3hE]KNE[X1]AL[ξ(4-Aminopyrrolidine-3-CO)]EL-NH2) the “fold difference in affinity for gp41-5 relative to 5” value [1] was over 45 fold, the “fold higher affinity for gp41-5 relative to 4” value ([1]; relative to 4) was about 380 fold and the “fold improvement of Ki relative to 9” value ([1]; relative to 9) was about 10 fold. The “NHR + CHR Tm (° C.)” value [9] was 55 °C, the “fold improvement in stability to proteinase K relative to α-peptide 3” value [3] was 280 fold and the half-life [8] was 200 min.

`CC[C@H](C)[C@H](NC(=O)[C@H](C)NC(=O)C[C@H](CCCNC(=N)N)NC(=O)[C@H](CC(=O)O)NC(=O)[C@H](Cc1c[nH]c2ccccc12)NC(=O)C[C@H](CCC(=O)O)NC(=O)[C@H](CCC(=O)O)NC(=O)[C@H](Cc1c[nH]c2ccccc12)NC(=O)[C@@H](NC(=O)C[C@H](CCCNC(=N)N)NC(C)=O)[C@@H](C)O)C(=O)N[C@@H](C)C(=O)N[C@@H](CCC(=O)O)CC(=O)N[C@@H](Cc1ccc(O)cc1)C(=O)N[C@@H](C)C(=O)N[C@@H](CCCNC(=N)N)CC(=O)N[C@@H](CCCNC(=N)N)C(=O)N[C@H](C(=O)N[C@@H](CCC(=O)O)C(=O)N[C@@H](CCC(=O)O)CC(=O)N[C@@H](CC(C)C)C(=O)N[C@H](C(=O)N[C@@H](CCCNC(=N)N)CC(=O)N[C@@H](C)C(=O)N[C@@H](C)C(=O)N[C@@H](CCC(N)=O)C(=O)N[C@@H](CCC(=O)O)CC(=O)N[C@@H](CCC(N)=O)C(=O)N[C@@H](CCC(N)=O)C(=O)N[C@@H](CCCNC(=N)N)CC(=O)N[C@@H](CCCCN)C(=O)N[C@@H](CC(N)=O)C(=O)N[C@@H](CCC(=O)O)C(=O)N[C@@H](CCC(=O)O)CC(=O)N[C@@H](C)C(=O)N[C@@H](CC(C)C)C(=O)N[C@@H](CCCNC(=N)N)CC(=O)N[C@@H](CCC(=O)O)C(=O)N[C@@H](CC(C)C)C(N)=O)[C@@H](C)CC)[C@@H](C)CC` [compound 17] (Ac-[β3hR]TWE[β3hE]WD[β3hR]AIA[β3hE]YA[β3hR]RIE[β3hE]LI[β3hR]AAQ[β3hE]QQ[β3hR]KNE[β3hE]AL[β3hR]EL-NH2) gave a Ki ([1]; read-out: Ki for gp41-5) of 11 nM.
